From PubChem BioAssay AID179 (DTP/NCI, 2004)
The source made the active and inactive calls.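 The calls were made as follows: active = compounds giving half or more protection of infected cells from virus-caused growth loss, again on retest; inactive = the rest.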

System: CEM cells HIV-1 protection, formazan growth assay
Assay: NCI AIDS Antiviral Assay
Settings: for IC50: measured here: growth of uninfected CEM cells
How it was run: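 Protection of CEM cells against HIV-1 was scored from cell growth (soluble formazan) across five concentrations, with parallel uninfected cells. Lack of protection may reflect toxicity.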

| SMILES | EC50 | IC50 | outcome |
| --- | --- | --- | --- |
| O=S(=O)(c1ccccc1)C1CC(c2ccccc2)N(c2ccccc2)O1 (centres undefined) | > 27.5 µM | > 27.5 µM |  |
| Nc1ncc2c(ncn2CCO)n1 | > 282 µM | > 282 µM |  |
| N#CCCN(CCCCN(CCC#N)C(=O)Nc1ccccc1)C(=O)Nc1ccccc1 | > 200 µM | > 200 µM |  |
| C=CCCCC[P+](c1ccccc1)(c1ccccc1)c1ccccc1 | > 20 µM | 1.45 µM |  |
| N#Cc1nc(-c2ccsc2)oc1N | > 200 µM | > 200 µM |  |
| NC(CS)=NCC1C2CC3CC(C2)CC1C3 (centres undefined) | > 200 µM | 33.1 µM |  |
| Cc1ccc(Nc2nc(C)c(C(=O)CC(=O)C(=O)Nc3ccc(Cl)cc3)s2)cc1 | > 200 µM | > 200 µM |  |
| O=C1CS(=O)(=O)C(c2ccccc2Cl)N1N1C(=O)CS(=O)(=O)C1c1ccccc1Cl (centres undefined) | > 200 µM | 46.8 µM |  |
| O=C(O)CCN1CCN(CCC(=O)O)CCN(CCC(=O)O)CC1 | > 200 µM | 18.2 µM |  |
| COc1c(O)cc2c(c1O)C1O[C@H](CO)C(O)[C@H](O)[C@H]1OC2=O (some centres undefined) | > 200 µM | > 200 µM |  |
| COc1ccc(CC2NCCc3cc(OC)c(OC)cc32)cc1 (centres undefined) | > 794 µM | 138 µM |  |
| CC(C)COP(=O)(OCC(C)C)C(NS(=O)(=O)c1ccccc1)(C(F)(F)F)C(F)(F)F |  |  | inactive |
| Cc1cc(C(C)(C)C)oc(=O)c1NC(=O)c1ccccc1 | > 200 µM | 155 µM |  |
| CC1(C)NC(c2ccccc2)c2ccsc2-n2cccc21 (centres undefined) | > 200 µM | > 100 µM |  |
| Nc1ccc(CCN2CCN(c3cccc(C(F)(F)F)c3)CC2)cc1I |  |  | inactive |
| Cc1c2n(c(=O)[nH]c1=O)C1OC(CO)C(O2)C1O (centres undefined) | > 200 µM | > 200 µM |  |
| O=C(CC(=O)C1CCOC1=O)C(=O)Nc1cccc(Cl)c1 (centres undefined) |  |  | inactive |
| Nc1ncnc2c1ncn2C1CCCCC1O (centres undefined) | > 58.9 µM | > 58.9 µM |  |
| c1ccc(P(CC[As](c2ccccc2)c2ccccc2)CC[As](c2ccccc2)c2ccccc2)cc1 | > 20.9 µM | 2.14 µM |  |

| SMILES | EC50 | IC50 | outcome |
| --- | --- | --- | --- |
| NC(=O)N1N=C2c3ccccc3CC[C@@H]2C1c1ccccc1 (some centres undefined) |  |  | inactive |
| CC1=CCCC(C)C1(C)CC/C(C)=C/CC/C(=C/CS(=O)(=O)CCN=C(N)N)CO (centres undefined) | > 81.3 µM | 15.1 µM |  |
| CN1C(=O)c2ccccc2OC12C=Cc1ccc(O)cc1O2 (centres undefined) | > 132 µM | 45.7 µM |  |
| O=c1c2c(sc3ccccc13)CCC2 | > 151 µM | > 151 µM |  |
| Cc1[nH]c(=O)[nH]c(=O)c1Cl |  |  | inactive |
| Cn1c(NS(=O)(=O)c2ccccc2)nc2ccccc21 | > 200 µM | > 200 µM |  |
| COC/N=C(\NC#N)NCOC | > 525 µM | > 525 µM |  |
| S=P(c1ccccc1)(c1ccccc1)C1(C2(P(=S)(c3ccccc3)c3ccccc3)CC2)CC1 | > 10 µM | > 10 µM |  |
| COc1ccc(-c2oc3ccc(C)cc3c(=O)c2O)cc1 | > 52.5 µM | > 52.5 µM |  |
| COC(=O)C1=C2CCC(=O)[C@@]2(C)C(OC(C)=O)C=CC1 (some centres undefined) |  |  | inactive |
| Cc1ncc[pH]1 (centres undefined) | > 138 µM | > 138 µM |  |
| CCOC(=O)CCCNC(=O)CCCCC(=O)N(C)C | > 200 µM | > 200 µM |  |
| O=C1/C(=C/c2ccc(Br)s2)NC(=S)N1CN1CCOCC1 | > 200 µM | 36.3 µM |  |
| Cc1noc(NS(=O)(=O)c2ccc(NC(=S)/N=C/c3c(O)[nH]c(=O)[nH]c3=O)cc2)c1C | > 200 µM | > 200 µM |  |
| Cc1ccccc1C1(Br)C(=O)c2ccccc2C1=O | > 200 µM | 33.9 µM |  |
| C=C1CN(S(=O)(=O)c2ccc(C)cc2)CCCN(C(C)C)CCCN(S(=O)(=O)c2ccc(C)cc2)C1 | > 200 µM | 6.31 µM |  |
| O=S(=O)(O)c1ccc(OCCCCCCCCCCOc2ccc(S(=O)(=O)O)cc2)cc1 | > 25.7 µM | > 25.7 µM |  |
| O=C(C(O)c1cn(Cc2ccccc2)c2ccccc12)N1CCCCC1 (centres undefined) |  |  | inactive |
| CCOC(=O)C(Cl)C1(O)Cc2cccc3cccc1c23 (centres undefined) | > 200 µM | 110 µM |  |
